These are literature values, as cited in PMC9598925, “Synthetic Amphipathic β-Sheet Temporin-Derived Peptide with Dual Antibacterial and Anti-Inflammatory Activities” (Antibiotics, 2022).

Read-outs that look alike come from different tables or passages of the source.

Data set [1] relates to J774A.1 murine macrophage cells. As to conditions: highest concentration of 25 μM; previous work of the authors; cited from earlier work.
For data set [2] the following is noted: LUVs mimicking Gram-positive and Gram-negative membranes; cited from earlier work. An excerpt: The molecular conformation of [Nle^1, DLeu^9, DLys^10]TL was investigated by circular dichroism (CD) spectroscopy both in LUVs made of DOPG/CL and DOPG/DOPE/CL (Figure 3, panel A). […] In contrast, the introduction of Nle induced changes in molecular conformation, determining the formation of β-aggregates.

The test system of another data set is P. aeruginosa ATCC 27853. As to conditions: lead peptide, previous works ref 27, 41; cited from earlier work. An excerpt: (§1) Table 2 MICs values of peptide [Nle^1, DLeu^9, DLys^10]TL in comparison with [DLeu^9, DLys^10]TL on selected Gram-positive and Gram-negative strains. | column: MIC Values (μM) / [DLeu^9, DLys^10]TL *
Another data set has as its system E. coli ATCC 25922. As to conditions: lead peptide, previous works ref 27, 41; cited from earlier work.
Text: as §1

The test system of a further data set is A. baumannii ATCC 19606. Particulars: lead peptide, previous works ref 27, 41; cited from earlier work.
Text: as §1

Data set [3] relates to K. pneumoniae ATCC BAA-1705. As to conditions: lead peptide, previous works ref 27, 41; cited from earlier work.
Text: as §1

The next data set has as its system B. megaterium Bm11. As to conditions: lead peptide, previous works ref 27, 41; cited from earlier work.
Text: as §1

The subject of data set [4] is S. epidermidis ATCC 12228. As to conditions: lead peptide, previous works ref 27, 41; cited from earlier work.
Text: as §1

A further data set concerns S. aureus ATCC 25923. Particulars: lead peptide, previous works ref 27, 41; cited from earlier work.
Text: as §1

The conditions of data set [5]: 10 μM peptide; LUVs DOPG/CL, ANTS/DPX; cited from earlier work. As to the method: In this study, we evaluated the membranolytic activity of analogue [Nle^1, DLeu^9, DLys^10]TL in presence of LUVs mimicking Gram-positive and Gram-negative membranes by using ANTS/DPX leakage assay. […] Indeed, after the treatment with 10 μM of [Nle^1, DLeu^9, DLys^10]TL, we observed ~60% of LUVs leakage in com ...

For data set [6], the system named is zymosan-induced peritonitis. As to conditions: cited from earlier work.
For data set [7] the following is noted: range of concentrations 1 μM–200 μM; cited from earlier work. The text has this: The impact of Nle on the aggregation propensity was studied in solution and in presence of large unilamellar vesicles (LUVs) mimicking Gram-positive and Gram-negative membranes. The aggregation in aqueous solution was monitored using Nile Red (NR) as a fluorescent probe. […] The introduction of the Nle residue conferred to peptide [Nle^1, DLeu^9, DLys^10]TL a low propensity to aggregate in aqueous solution as shown ...

For data set [8] the following is noted: LUVs DOPG/CL, cited from earlier work. Here is the method: LUVs composed of DOPG/CL (58/42 ratio in moles) and DOPG/DOPE/CL ([…] ratio in moles) were used to mimic Gram-positive and Gram-negative cell membranes, respectively. LUVs were titrated with different peptide concentrations of 5, 10, 15, […], 30, and 50 μM. […] In contrast, the peptide [DLeu^9, DLys^10]TL progressively oligomerized in LUVs (DOPG/CL) as described in Bellavita et al.; in fact, it was partially aggr ...

The next data set relates to HaCaT cells. As to conditions: highest concentration of 25 μM; previous work of the authors; cited from earlier work.

FVPWFSKFlkRIL [[DLeu^9, DLys^10]TL]: the “cytotoxicity on murine macrophages” value in [1] is listed as “not cytotoxic”. Further, the “molecular conformation (CD)” value in data set [2] is on record as “helical aggregates”. Besides, the MIC is 12.5 µM with P. aeruginosa ATCC 27853; 12.5 µM in the data set with E. coli ATCC 25922; 6.25 µM in the data set with A. baumannii ATCC 19606; 12.5 µM in [3]; 3.12 µM in the data set on B. megaterium Bm11; 3.12 µM in data set [4]. In addition, the MIC with S. aureus ATCC 25923 is 6.25 µM. The LUVs leakage in data set [5] was ~ 23%. For the same substance, in data set [6], the “anti-inflammatory activity in vivo” value is “significant anti-inflammatory activity”. For the same substance, the “level of pro-inflammatory cytokines IL-6, MCP-1 and TNF-α” value in data set [6] is reported as “reduced the level of pro-inflammatory cytokines”. Moreover, the aggregation in solution result in [7] is reported as “unable to aggregate in solution”. Moreover, the “aggregation (ThT)” value in data set [8] (20 μM peptide) is given as ~ 56%; in data set [8] (50 μM peptide) it was “completely aggregated”. For the same substance, the “cytotoxicity on human keratinocytes” value in the data set on HaCaT cells is “not cytotoxic”.
